Where two headings read alike, the source gives them in different places.
How the values were obtained:
[1] = In vitro microsomal stability, rat; assay type: in vitro ADME
[2] = test system: Isogenic HCT-116 colon cancer cell lines; test: cells; assay type: cell-based; settings: Homo sapiens;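 further: cells grown in 96-well plates in McCoy's 5A medium with 10% FBS, exposed to compound for 4 days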
Method: Cells were seeded in 96-well flat bottom cell culture plates at a density of 2−3×10^3 cells/well with compounds and incubated for 4 days.

[3] = test system: cancer cell lines with wild-type p53 / mutated or deleted p53 (ATCC); test: Cell growth assay (WST-8), other cancer cell lines; assay type: cell-based; settings: for IC50: Homo sapiens
[4] = HCT-116, read-out: HCT-116 (p53-/-) IC50, Table 19A, HCT-116 p53-/-, cell growth
[5] = HCT-116, read-out: HCT-116 (p53 wild-type) IC50, Table 19A, HCT-116 p53 wild-type, cell growth
[6] = LNCaP, Table 19A, LNCAP cells, p53 wild-type, cell growth, read-out: LNCAP (p53 wild-type) IC50
[7] = PC-3, Table 19A, PC-3 cells, deleted p53, cell growth, read-out: PC-3 (deleted p53) IC50
[8] = SJSA-1, Table 19A, SJSA-1 cells, p53 wild-type, cell growth, read-out: SJSA-1 (p53 wild-type) IC50
[9] = LNCaP, read-out: LNCAP (p53 wild-type) IC50
[10] = PC-3, read-out: PC-3 (deleted p53) IC50
[11] = HCT-116, read-out: HCT-116 (p53 wild-type) IC50
[12] = SJSA-1, read-out: SJSA-1 (p53 wild-type) IC50

For `CC(C)(C)CC1NC(C(=O)NCCN2CCOCC2)C(c2cccc(Cl)c2F)C12C(=O)Nc1cc(Cl)ccc12` (stereo not drawn) [MI-63], the “% of compound remaining when incubated in rat liver microsomes” value (“% of compound remaining when incubated” for short) ([1]; Table 16, 0 min) was 100%, the “% of compound remaining when incubated” value ([1]; Table 16, 4 min) was 76% and the “% of compound remaining when incubated” value ([1]; Table 16, 6 min) was 57.9%. For the same compound, the “% of compound remaining when incubated” value ([1]; Table 16, 10 min) was 35.4%, the “% of compound remaining when incubated” value ([1]; Table 16, 15 min) was 27.7% and the “% of compound remaining when incubated” value ([1]; Table 16, 30 min) was 21%.
With `CC(C)(C)CC1NC(C(=O)NCCN2CCCC2)C(c2cccc(Cl)c2F)C12C(=O)Nc1cc(Cl)ccc12` (stereo not drawn) [MI-120] the “% of compound remaining when incubated” value ([1]; Table 16, 0 min) was 100%, the “% of compound remaining when incubated” value ([1]; Table 16, 4 min) was 95.1% and the “% of compound remaining when incubated” value ([1]; Table 16, 6 min) was 88.1%. For the same compound, the “% of compound remaining when incubated” value ([1]; Table 16, 10 min) was 84.7%, the “% of compound remaining when incubated” value ([1]; Table 16, 15 min) was 82.1% and the “% of compound remaining when incubated” value ([1]; Table 16, 30 min) was 79%.
With `CCN1CCN(CCNC(=O)C2NC(CC(C)(C)C)C3(C(=O)Nc4cc(Cl)ccc43)C2c2cccc(Cl)c2F)CC1` (stereo not drawn) [MI-129] the “% of compound remaining when incubated” value ([1]; Table 16, 0 min) was 100%, the “% of compound remaining when incubated” value ([1]; Table 16, 4 min) was 74.4% and the “% of compound remaining when incubated” value ([1]; Table 16, 6 min) was 52.5%. For the same compound, the “% of compound remaining when incubated” value ([1]; Table 16, 10 min) was 41.1%, the “% of compound remaining when incubated” value ([1]; Table 16, 15 min) was 36.7% and the “% of compound remaining when incubated” value ([1]; Table 16, 30 min) was 33.1%.
With `CC(C)N1CCN(CCNC(=O)[C@@H]2N[C@H](CC(C)(C)C)[C@]3(C(=O)Nc4cc(Cl)ccc43)[C@H]2c2cccc(Cl)c2F)CC1` [MI-130] the “% of compound remaining when incubated” value ([1]; Table 16, 0 min) was 100%, the “% of compound remaining when incubated” value ([1]; Table 16, 4 min) was 77.2% and the “% of compound remaining when incubated” value ([1]; Table 16, 6 min) was 60.1%. The “% of compound remaining when incubated” value ([1]; Table 16, 10 min) was 48%, the “% of compound remaining when incubated” value ([1]; Table 16, 15 min) was 42.3% and the “% of compound remaining when incubated” value ([1]; Table 16, 30 min) was 34.1%.
For `CC(C)(C)C[C@H]1N[C@@H](C(=O)NCCCN2CCCC2)[C@H](c2cccc(Cl)c2F)[C@@]12C(=O)Nc1cc(Cl)ccc12` [MI-519-43], the IC50 [2, 4] was 4.1 ± 0.5 µM, the IC50 [2, 5] was 0.9 µM and the IC50 [3, 6] was 1 µM. The IC50 [3, 7] was 3.4 µM, the IC50 [3, 8] was 0.9 ± 0.1 µM and the “% of compound remaining when incubated” value ([1]; Table 17, 0 min) was 100%. The “% of compound remaining when incubated” value ([1]; Table 17, 4 min) was 92.3%, the “% of compound remaining when incubated” value ([1]; Table 17, 6 min) was 86.1% and the “% of compound remaining when incubated” value ([1]; Table 17, 10 min) was 70.6%. For the same compound, the “% of compound remaining when incubated” value ([1]; Table 17, 15 min) was 69.9%, the “% of compound remaining when incubated” value ([1]; Table 17, 30 min) was 62.5% and the “microsomal stability (in words)” value ([1]; rat liver microsomes) was “improved microsomal stability over MI-219”.
For `CC(C)(C)C[C@H]1N[C@@H](C(=O)NCCCN2CCN(C3CC3)CC2)[C@H](c2cccc(Cl)c2F)[C@@]12C(=O)Nc1cc(Cl)ccc12` [MI-519-48], the “% of compound remaining when incubated” value ([1]; Table 17, 0 min) was 100%, the “% of compound remaining when incubated” value ([1]; Table 17, 4 min) was 79.8% and the “% of compound remaining when incubated” value ([1]; Table 17, 6 min) was 64.8%. The “% of compound remaining when incubated” value ([1]; Table 17, 10 min) was 48.5%, the “% of compound remaining when incubated” value ([1]; Table 17, 15 min) was 45.2% and the “% of compound remaining when incubated” value ([1]; Table 17, 30 min) was 43.7%.
For `CC(C)(C)C[C@H]1N[C@@H](C(=O)N[C@H]2CC[C@H](O)C2)[C@H](c2cccc(Cl)c2F)[C@@]12C(=O)Nc1cc(Cl)ccc12` [MI-519-51-epi], the IC50 [3, 9] was < 2 µM and the IC50 [3, 10] was > 10 µM.
For `CC(C)(C)C[C@H]1N[C@@H](C(=O)N[C@H]2C[C@H](NS(C)(=O)=O)C2)[C@H](c2cccc(Cl)c2F)[C@@]12C(=O)Nc1cc(Cl)ccc12` [MI-519-61], the IC50 [2, 11] was < 3 µM, the IC50 [3, 9] was < 3 µM and the IC50 [3, 12] was < 3 µM.
With `CC(C)(C)C[C@H]1N[C@@H](C(=O)N[C@H]2C[C@](C)(O)C2)[C@H](c2cccc(Cl)c2F)[C@@]12C(=O)Nc1cc(Cl)ccc12` [MI-519-65] the “cell growth inhibition (in words)” value [3] was “effectively inhibit cancer cell growth”, the IC50 [3, 9] was < 3 µM and the IC50 [3, 12] was < 3 µM.
With `CC(C)(C)C[C@H]1N[C@@H](C(=O)NC2CCN(CC(F)F)CC2)[C@H](c2cccc(Cl)c2F)[C@@]12C(=O)Nc1cc(Cl)ccc12` [MI-519-66] the IC50 ([2]; HCT-116, read-out: HCT116p53KO IC50, Table 19D, HCT116 p53KO) was 5.51 µM, the IC50 ([2]; HCT-116, read-out: HCT116p53WT IC50, Table 19D, HCT116 p53WT) was < 2 µM and the IC50 ([3]; LNCaP, Table 19D, LNCaP cells, read-out: LNCaP IC50) was < 3 µM. For the same compound, the IC50 ([3]; PC-3, Table 19D, PC3 cells, read-out: PC3 IC50) was 6.89 µM and the IC50 ([3]; Table 19D, SJSA-1 cells, unit inferred, read-out: SJSA-1) was < 3 µM.
For `CC(C)(C)C[C@H]1N[C@@H](C(=O)NC2CC(OC(=O)CN)C2)[C@H](c2cccc(Cl)c2F)[C@@]12C(=O)Nc1cc(Cl)ccc12` (stereo partly drawn) [MI-519-69], the IC50 [2, 4] was > 10 µM, the IC50 [2, 5] was < 5 µM and the IC50 [3, 6] was < 5 µM. The IC50 [3, 7] was > 10 µM and the IC50 [3, 8] was < 5 µM.
In the case of `CC(C)(C)C[C@H]1N[C@@H](C(=O)NC2CC(=O)C2)[C@H](c2cccc(Cl)c2F)[C@@]12C(=O)Nc1cc(Cl)ccc12` [MI-519-70], the IC50 [2, 4] is reported as > 10 µM, the IC50 [2, 5] is reported as < 5 µM and the IC50 [3, 6] is reported as < 5 µM. The IC50 [3, 7] was > 10 µM and the IC50 [3, 8] was < 5 µM.
Compound `CC(C)(C)C[C@@H]1N[C@@H](C(=O)N[C@H]2C[C@@](C)(O)C2)[C@H](c2cccc(Cl)c2F)[C@]12C(=O)Nc1cc(Cl)ccc12` [MI-519-6401] has an IC50 [2, 11] of 0.1 µM, an IC50 [3, 9] of 0.3 µM and an IC50 [3, 10] of 10.5 µM. The IC50 [3, 12] was 0.4 µM.

— US9079913B2, “Spiro-oxindole MDM2 antagonists” (The Regents of the University of Michigan, priority 2009, dated 2015)
